Experimental data reported in ChEMBL document CHEMBL2074434, “Interaction of cytochrome P450 3A inhibitors with P-glycoprotein” (J Pharmacol Exp Ther, 2002).

Tests used:
[1] = biological target: ATP-dependent translocase ABCB1 (Mus musculus, UniProt P06795); assay: TP_TRANSPORTER: increase in Calcein-AM intracellular accumulation in mdr1b-expressing LLC-PK1 cells; format: functional, cell-based
[2] = biological target: T1, ATP-dependent translocase ABCB1 (Mus musculus, UniProt P21447); assay: TP_TRANSPORTER: increase in Calcein-AM intracellular accumulation in mdr1a-expressing LLC-PK1 cells; format: functional, cell-based
T1 sequence (P21447 whole entry): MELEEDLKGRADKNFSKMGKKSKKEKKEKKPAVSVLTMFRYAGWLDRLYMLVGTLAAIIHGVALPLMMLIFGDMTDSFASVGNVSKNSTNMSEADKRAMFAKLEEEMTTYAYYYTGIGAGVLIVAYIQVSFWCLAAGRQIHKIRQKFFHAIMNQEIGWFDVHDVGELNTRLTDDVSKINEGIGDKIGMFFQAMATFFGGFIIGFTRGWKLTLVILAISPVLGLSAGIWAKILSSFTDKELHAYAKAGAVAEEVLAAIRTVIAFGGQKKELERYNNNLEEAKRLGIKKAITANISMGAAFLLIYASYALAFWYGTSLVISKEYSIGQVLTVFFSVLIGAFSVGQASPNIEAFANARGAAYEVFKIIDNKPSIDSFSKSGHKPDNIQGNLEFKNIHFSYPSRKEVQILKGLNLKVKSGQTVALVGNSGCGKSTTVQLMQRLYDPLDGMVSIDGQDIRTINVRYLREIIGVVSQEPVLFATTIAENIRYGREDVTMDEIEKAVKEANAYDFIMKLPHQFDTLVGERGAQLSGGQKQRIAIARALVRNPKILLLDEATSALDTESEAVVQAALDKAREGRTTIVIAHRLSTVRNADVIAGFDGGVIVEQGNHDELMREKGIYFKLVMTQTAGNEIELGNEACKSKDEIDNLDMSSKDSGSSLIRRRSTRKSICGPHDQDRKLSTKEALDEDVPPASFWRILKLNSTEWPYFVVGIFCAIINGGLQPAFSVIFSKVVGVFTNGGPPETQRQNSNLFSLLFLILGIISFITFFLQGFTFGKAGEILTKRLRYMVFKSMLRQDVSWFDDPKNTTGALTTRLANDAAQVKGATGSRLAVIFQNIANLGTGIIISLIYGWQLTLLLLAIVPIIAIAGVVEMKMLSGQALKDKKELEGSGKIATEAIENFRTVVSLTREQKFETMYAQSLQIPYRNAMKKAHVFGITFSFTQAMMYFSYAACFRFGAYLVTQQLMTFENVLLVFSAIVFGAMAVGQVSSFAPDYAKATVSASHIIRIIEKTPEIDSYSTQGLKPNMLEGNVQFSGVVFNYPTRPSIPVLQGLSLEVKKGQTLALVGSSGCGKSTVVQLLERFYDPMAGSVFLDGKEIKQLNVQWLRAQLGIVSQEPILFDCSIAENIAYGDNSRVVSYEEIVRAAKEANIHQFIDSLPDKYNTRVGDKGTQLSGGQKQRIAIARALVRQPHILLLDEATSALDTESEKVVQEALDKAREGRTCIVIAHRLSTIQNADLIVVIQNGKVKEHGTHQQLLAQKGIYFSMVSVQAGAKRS

[3] = biological target: T1, ATP-dependent translocase ABCB1; assay: TP_TRANSPORTER: increase in liver concentration in mdr1a(-/-) mouse; format: functional, organism-based; details: in vivo
[4] = biological target: T1, ATP-dependent translocase ABCB1; assay: TP_TRANSPORTER: increase in lung concentration in mdr1a(-/-) mouse; format: functional, organism-based; details: in vivo
[5] = biological target: T1, ATP-dependent translocase ABCB1; assay: TP_TRANSPORTER: transepithelial transport (basal to apical) in mdr1a-expressing LLC-PK1 cell; format: functional, cell-based; details: pig
[6] = biological target: T1, ATP-dependent translocase ABCB1; assay: TP_TRANSPORTER: increase in spleen concentration in mdr1a(-/-) mouse; format: functional, organism-based; details: in vivo
[7] = biological target: T1, ATP-dependent translocase ABCB1; assay: TP_TRANSPORTER: increase in heart concentration in mdr1a(-/-) mouse; format: functional, organism-based; details: in vivo
[8] = biological target: T1, ATP-dependent translocase ABCB1; assay: TP_TRANSPORTER: increase in kidney concentration in mdr1a(-/-) mouse; format: functional, organism-based; details: in vivo
[9] = biological target: T1, ATP-dependent translocase ABCB1; assay: TP_TRANSPORTER: no influence on tissue distribution in mdr1a(-/-) mouse; format: functional, organism-based; details: in vivo
[10] = biological target: ATP-dependent translocase ABCB1 (Homo sapiens, UniProt P08183); assay: TP_TRANSPORTER: transepithelial transport (basal to apical) in MDR1-expressing LLC-PK1 cells; format: functional, cell-based; details: pig
Chain of ATP-dependent translocase ABCB1 (Homo sapiens, UniProt P08183) (P08183 whole entry): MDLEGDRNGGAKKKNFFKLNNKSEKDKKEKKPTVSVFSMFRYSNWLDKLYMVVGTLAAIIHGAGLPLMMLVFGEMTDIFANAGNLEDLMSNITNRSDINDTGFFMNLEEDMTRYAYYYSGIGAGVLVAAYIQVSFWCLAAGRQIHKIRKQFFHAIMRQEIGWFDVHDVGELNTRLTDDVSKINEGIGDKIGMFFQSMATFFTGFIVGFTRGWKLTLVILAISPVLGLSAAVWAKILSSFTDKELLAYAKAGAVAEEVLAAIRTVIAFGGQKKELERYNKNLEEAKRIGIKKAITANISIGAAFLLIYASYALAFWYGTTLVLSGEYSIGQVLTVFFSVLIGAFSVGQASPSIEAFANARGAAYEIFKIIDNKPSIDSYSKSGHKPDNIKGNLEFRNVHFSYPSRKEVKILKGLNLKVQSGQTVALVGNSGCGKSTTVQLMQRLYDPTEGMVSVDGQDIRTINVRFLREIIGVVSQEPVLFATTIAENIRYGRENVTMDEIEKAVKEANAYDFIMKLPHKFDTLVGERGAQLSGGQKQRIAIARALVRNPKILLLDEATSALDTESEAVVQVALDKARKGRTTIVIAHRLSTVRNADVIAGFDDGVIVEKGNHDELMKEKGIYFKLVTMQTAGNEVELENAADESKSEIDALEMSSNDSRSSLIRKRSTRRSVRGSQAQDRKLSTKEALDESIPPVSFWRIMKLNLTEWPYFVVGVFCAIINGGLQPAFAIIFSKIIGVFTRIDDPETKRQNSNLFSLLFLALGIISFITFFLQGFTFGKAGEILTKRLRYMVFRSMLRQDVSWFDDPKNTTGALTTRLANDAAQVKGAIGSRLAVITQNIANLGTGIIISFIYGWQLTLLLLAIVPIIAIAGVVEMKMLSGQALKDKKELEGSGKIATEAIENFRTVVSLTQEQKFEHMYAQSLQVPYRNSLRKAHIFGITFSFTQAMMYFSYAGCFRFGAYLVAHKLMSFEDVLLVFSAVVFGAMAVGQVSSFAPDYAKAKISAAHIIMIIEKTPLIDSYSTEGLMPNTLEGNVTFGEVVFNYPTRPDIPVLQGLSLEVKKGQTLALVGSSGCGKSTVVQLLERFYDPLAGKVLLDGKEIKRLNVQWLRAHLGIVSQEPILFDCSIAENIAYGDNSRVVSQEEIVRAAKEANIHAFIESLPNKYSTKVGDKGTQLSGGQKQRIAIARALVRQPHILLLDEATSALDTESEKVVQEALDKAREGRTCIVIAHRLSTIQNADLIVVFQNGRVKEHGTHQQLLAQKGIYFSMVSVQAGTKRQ

Chain of ATP-dependent translocase ABCB1 (Mus musculus, UniProt P06795) (P06795 whole entry): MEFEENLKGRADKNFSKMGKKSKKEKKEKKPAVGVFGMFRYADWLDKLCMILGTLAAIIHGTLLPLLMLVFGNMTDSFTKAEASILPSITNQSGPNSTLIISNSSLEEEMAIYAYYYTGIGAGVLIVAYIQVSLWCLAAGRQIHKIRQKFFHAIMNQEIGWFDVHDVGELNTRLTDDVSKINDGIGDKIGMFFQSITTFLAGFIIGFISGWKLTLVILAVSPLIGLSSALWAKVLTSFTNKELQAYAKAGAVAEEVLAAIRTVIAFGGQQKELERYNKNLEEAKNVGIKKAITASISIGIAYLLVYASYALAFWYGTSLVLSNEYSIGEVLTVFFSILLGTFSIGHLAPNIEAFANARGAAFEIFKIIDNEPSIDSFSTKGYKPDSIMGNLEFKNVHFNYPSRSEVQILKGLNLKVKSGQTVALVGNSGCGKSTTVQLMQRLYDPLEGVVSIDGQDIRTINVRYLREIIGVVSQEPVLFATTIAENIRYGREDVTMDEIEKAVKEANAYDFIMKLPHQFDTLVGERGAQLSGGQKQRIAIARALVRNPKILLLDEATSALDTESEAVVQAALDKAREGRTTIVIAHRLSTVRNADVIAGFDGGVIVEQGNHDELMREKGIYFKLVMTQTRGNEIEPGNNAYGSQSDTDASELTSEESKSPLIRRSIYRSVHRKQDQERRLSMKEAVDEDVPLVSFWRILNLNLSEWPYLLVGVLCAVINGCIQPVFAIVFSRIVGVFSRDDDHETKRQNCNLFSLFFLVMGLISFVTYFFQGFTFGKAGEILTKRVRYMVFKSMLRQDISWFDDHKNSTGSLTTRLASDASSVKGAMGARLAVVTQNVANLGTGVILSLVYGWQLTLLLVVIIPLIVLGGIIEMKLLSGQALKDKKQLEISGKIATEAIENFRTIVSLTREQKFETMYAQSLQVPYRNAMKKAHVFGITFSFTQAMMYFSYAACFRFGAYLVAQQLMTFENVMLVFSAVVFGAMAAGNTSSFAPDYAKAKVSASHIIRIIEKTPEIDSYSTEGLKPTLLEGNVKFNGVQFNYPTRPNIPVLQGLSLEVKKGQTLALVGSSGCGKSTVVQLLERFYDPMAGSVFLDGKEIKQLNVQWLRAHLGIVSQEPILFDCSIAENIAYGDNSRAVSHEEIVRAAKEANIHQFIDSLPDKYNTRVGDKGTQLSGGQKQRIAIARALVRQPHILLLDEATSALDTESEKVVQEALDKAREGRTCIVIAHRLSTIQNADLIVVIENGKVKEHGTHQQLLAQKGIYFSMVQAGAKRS

| SMILES | Ki [1] [µM] | Ki [2] [µM] | further results |
| --- | --- | --- | --- |
| CC(C)C[C@H]1C(=O)N2CCC[C@H]2[C@]2(O)O[C@](NC(=O)[C@@H]3C=C4c5cccc6[nH]cc(c56)C[C@H]4N(C)C3)(C(C)C)C(=O)N12 [ERGOCRYPTINE] | 26.9 | 43.5 | – |
| Clc1ccc(COC(Cn2ccnc2)c2ccc(Cl)cc2Cl)c(Cl)c1 (stereo not given) [MICONAZOLE] | – | 22.2 | – |
| COC(=O)[C@H]1[C@H]2C[C@@H]3c4[nH]c5cc(OC)ccc5c4CCN3C[C@H]2C[C@@H](OC(=O)c2cc(OC)c(OC)c(OC)c2)[C@@H]1OC [RESERPINE] | 17.9 | 4.03 | Activity [3]: substrate [+]; Activity [4]: substrate [+]; Activity [5]: substrate [+]; Activity [6]: substrate [+]; Activity [7]: substrate [+]; Activity [8]: substrate [+] |
| C[C@@H](CO)NC(=O)[C@@H]1C=C2c3cccc4[nH]cc(c34)C[C@H]2N(C)C1 [ERGONOVINE] | > 1000 | 118 | – |
| OC(Cn1cncn1)(Cn1cncn1)c1ccc(F)cc1F [FLUCONAZOLE] | > 1000 | > 1000 | Activity [9]: is not a substrate [-]; Activity [10]: is not a substrate [-]; Activity [5]: substrate [+] |
| CC(C)[C@@]1(NC(=O)[C@@H]2C[C@@H]3c4cccc5[nH]cc(c45)C[C@H]3N(C)C2)O[C@@]2(O)[C@@H]3CCCN3C(=O)[C@H](Cc3ccccc3)N2C1=O [DIHYDROERGOCRISTINE] | 167 | 111 | Activity [10]: substrate [+] |
| CC(C)[C@H]1C(=O)N2CCC[C@H]2[C@]2(O)O[C@](NC(=O)[C@@H]3C=C4c5cccc6[nH]cc(c56)C[C@H]4N(C)C3)(C(C)C)C(=O)N12 [ERGOCORNINE] | 19.1 | 272 | – |
| Clc1ccccc1C(c1ccccc1)(c1ccccc1)n1ccnc1 [CLOTRIMAZOLE] | 25.1 | 18.3 | – |
| CO[C@H]1C[C@H](O[C@H]2[C@H](C)[C@@H](O[C@@H]3O[C@H](C)C[C@H](N(C)C)[C@H]3OC(C)=O)[C@@H](C)C[C@@]3(CO3)C(=O)[C@H](C)[C@@H](OC(C)=O)[C@@H](C)[C@@H](C)OC(=O)[C@@H]2C)O[C@@H](C)[C@@H]1OC(C)=O [TROLEANDOMYCIN] | > 1000 | 217 | – |
| CC(C)C[C@H]1C(=O)N2CCC[C@H]2[C@]2(O)O[C@](NC(=O)[C@@H]3C[C@@H]4c5cccc6[nH]cc(c56)C[C@H]4N(C)C3)(C(C)C)C(=O)N12 [DIHYDROERGOCRYPTINE] | 160 | 333 | Activity [5]: substrate [+]; Activity [8]: substrate [+] |
| CC(C)[C@@]1(NC(=O)[C@@H]2C=C3c4cccc5[nH]cc(c45)C[C@H]3N(C)C2)O[C@@]2(O)[C@@H]3CCCN3C(=O)[C@H](Cc3ccccc3)N2C1=O [ERGOCRISTINE] | 15.3 | 39.4 | – |
| CN1C[C@H](C(=O)N[C@]2(C)O[C@@]3(O)[C@@H]4CCCN4C(=O)[C@H](Cc4ccccc4)N3C2=O)C=C2c3cccc4[nH]cc(c34)C[C@H]21 [ERGOTAMINE] | 18 | 189 | – |
| CC[C@H]1OC(=O)[C@H](C)[C@@H](O[C@H]2C[C@@](C)(OC)[C@@H](O)[C@H](C)O2)[C@H](C)[C@@H](O[C@@H]2O[C@H](C)C[C@H](N(C)C)[C@H]2O)[C@](C)(O)C[C@@H](C)C(=O)[C@H](C)[C@@H](O)[C@]1(C)O [ERYTHROMYCIN] | – | > 1000 | – |
| CC(C)C[C@H]1C(=O)N2CCC[C@H]2[C@]2(O)O[C@](NC(=O)[C@@H]3C=C4c5cccc6[nH]c(Br)c(c56)C[C@H]4N(C)C3)(C(C)C)C(=O)N12 [BROMOCRIPTINE] | 6.39 | 7.48 | – |
| CN1C[C@H](C(=O)N[C@]2(C)O[C@@]3(O)[C@@H]4CCCN4C(=O)[C@H](Cc4ccccc4)N3C2=O)C[C@@H]2c3cccc4[nH]cc(c34)C[C@H]21 [DIHYDROERGOTAMINE] | > 1000 | > 1000 | – |
